In the supplement of paper PMC10307832:

How the values were obtained:
BGJ398 + Foretinib = compound: CCN1CCN(c2ccc(Nc3cc(N(C)C(=O)Nc4c(Cl)c(OC)cc(OC)c4Cl)ncn3)cc2)CC1 [BGJ398] + COc1cc2c(Oc3ccc(NC(=O)C4(C(=O)Nc5ccc(F)cc5)CC4)cc3F)ccnc2cc1OCCCN1CCOCC1 [Foretinib] (partner 0.25 µM); experiment: relative viability (nuclei count vs DMSO), 5 days (fraction); higher = more cells survive
In short: (§1)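 One day after seeding in 1536-well plates, lung cancer cell lines were dosed by pin tool. Dosing was either single-drug or a fixed anchor-drug dose plus five library-drug doses (not always all listed) in √10 steps. After 5 days, nuclei were stained in one fix-and-stain step and counted on 4× images, and relative viability is the nuclei count of treated wells over that of vehicle wells, given as the median of duplicate plates.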

[1] = compound: C1=CC2=NC=CN=C2C=C1/C=C/3\C(=O)NC(=O)S3 + CC1(C)CCC(c2ccc(Cl)cc2)=C(CN2CCN(c3ccc(C(=O)NS(=O)(=O)c4ccc(N[C@H](CCN5CCOCC5)CSc5ccccc5)c(S(=O)(=O)C(F)(F)F)c4)cc3)CC2)C1 [Navitoclax] (partner 0.5 µM); experiment: as above
In short: as §1

Cell Line | relative viability (BGJ398 + Foretinib; first compound 0.01 µM) | relative viability (BGJ398 + Foretinib; first compound 0.03162 µM) | relative viability (BGJ398 + Foretinib; first compound 0.1 µM) | relative viability (BGJ398 + Foretinib; first compound 0.3162 µM) | relative viability (BGJ398 + Foretinib; first compound 1 µM) | relative viability ([1]; first compound 0.02 µM) | relative viability ([1]; first compound 0.06325 µM) | relative viability ([1]; first compound 0.2 µM) | relative viability ([1]; first compound 0.6325 µM) | relative viability ([1]; first compound 2 µM)
LCLC-103H | 0.79 | 0.765 | 0.755 | 0.746 | 0.541 |  |  |  |  | 
EKVX | 0.763 | 0.409 | 0.805 | 0.643 | 0.686 | 0.931 | 0.865 | 0.916 | 0.957 | 0.822
LXF-289 | 0.901 | 0.901 | 0.881 | 0.873 | 0.871 | 0.92 | 0.918 | 0.898 | 0.917 | 0.932
ABC-1 | 0.962 | 1.19 | 1.05 | 1.26 | 0.973 |  |  |  |  | 
NCI-H650 | 0.983 | 1.06 | 1.06 | 1.04 | 0.928 |  |  |  |  | 
NCI-H1650 | 1.31 |  | 1.17 | 0.857 | 1.08 | 1.23 | 1.3 | 1.14 | 1.14 | 1.3
NCI-H2085 | 1 | 1.12 | 0.909 | 0.903 | 0.781 | 1.09 | 0.975 | 1.17 | 1.13 | 1.08
NCI-H1793 | 0.725 | 0.579 | 0.557 | 0.725 | 0.666 | 0.509 | 0.439 | 0.496 | 0.36 | 0.83
LC-2-ad | 1.05 | 0.839 | 1.02 | 0.963 | 0.99 | 0.441 | 0.455 | 0.461 | 0.378 | 0.397
COR-L 105 | 1.05 | 1.13 | 1.09 | 1.07 | 0.892 | 0.697 | 0.703 | 0.821 | 0.678 | 0.999
NCI-H1355 | 0.925 | 0.98 | 1.03 | 0.951 | 0.898 | 0.87 | 1.01 | 1.05 | 1.03 | 0.951
H3255 | 0.985 |  | 0.961 | 0.386 | 0.878 | 0.533 | 0.421 | 0.581 | 0.449 | 0.498
NCI-H1993 | 0.833 | 0.67 | 0.883 | 0.842 | 0.735 | 0.759 | 0.982 | 0.921 | 0.956 | 0.743
NCI-H1734 | 0.862 | 0.879 | 0.893 | 0.785 | 0.827 | 0.799 |  | 0.897 | 0.78 | 0.877
HOP-62 | 0.939 | 1.13 | 1.18 | 1.19 | 1.07 | 0.974 | 1.15 | 1.13 | 1.06 | 0.931
LOU-NH91 | 0.943 |  | 0.975 | 0.563 | 0.951 | 0.686 | 0.659 | 0.685 | 0.641 | 0.657
ChaGo-K-1 | 0.899 | 0.991 | 0.914 | 1.01 | 0.907 | 1.06 | 1.67 | 1.28 | 0.924 | 0.726
NCI-H2228 | 0.776 | 0.893 | 0.848 | 0.822 | 0.826 | 1.15 | 0.868 | 1.44 | 0.671 | 0.607

Cell Line | relative viability (BGJ398 + Foretinib; first compound 0.01 µM) | relative viability (BGJ398 + Foretinib; first compound 0.03162 µM) | relative viability (BGJ398 + Foretinib; first compound 0.1 µM) | relative viability (BGJ398 + Foretinib; first compound 0.3162 µM) | relative viability (BGJ398 + Foretinib; first compound 1 µM) | relative viability ([1]; first compound 0.02 µM) | relative viability ([1]; first compound 0.06325 µM) | relative viability ([1]; first compound 0.2 µM) | relative viability ([1]; first compound 0.6325 µM) | relative viability ([1]; first compound 2 µM)
PC-14 | 0.905 | 0.618 | 1.02 | 0.802 | 1.03 | 0.871 | 1 | 1 | 1 | 1.08
NCI-H1437 | 1.42 | 1.29 | 1.27 | 1.25 | 1.28 | 1.03 | 1.1 | 1.12 | 1.07 | 0.93
NCI-H460 | 0.999 | 0.994 | 1.08 | 1.06 | 1.04 | 1.03 | 1.24 | 1.19 | 1.02 | 1.11
NCI-H1666 | 1.03 | 1.01 | 0.963 | 0.945 | 1.01 | 0.9 | 0.954 | 0.913 | 0.989 | 0.919
NCI-H1651 | 0.753 | 0.781 | 0.94 | 0.73 | 0.677 | 0.989 | 1.03 | 0.915 | 0.981 | 1.08
NCI-H1755 | 0.88 | 0.985 | 0.919 | 0.929 | 0.955 | 0.881 | 0.947 | 1.03 | 0.975 | 0.936
NCI-H661 | 0.889 | 1.06 | 1.14 | 0.932 | 0.982 |  |  |  |  | 
HARA | 0.941 | 0.901 | 0.829 | 0.905 | 0.79 | 1.1 | 1.11 | 1.17 | 1.16 | 1.09
NCI-H596 | 0.903 | 0.804 | 0.773 | 0.944 | 0.779 | 0.902 | 0.96 | 0.977 | 0.883 | 0.951
NCI-H1563 | 0.924 | 0.931 | 0.946 | 0.814 | 0.752 |  |  |  |  | 
NCI-H23 | 1.01 | 1.08 | 1.17 | 1.06 | 0.881 | 0.714 | 1.18 | 0.828 | 0.868 | 0.635
A549 | 0.919 | 0.939 | 0.97 | 0.944 | 1.09 | 1.24 | 1.43 | 1.22 | 1.02 | 1.11
LCLC-97TM1 | 0.813 | 0.923 | 0.947 | 0.925 | 1.03 | 0.483 | 0.339 | 0.483 | 0.425 | 0.379
EPLC-272H | 0.794 | 0.534 | 0.84 | 0.724 | 0.74 | 1.08 | 1.03 | 1.41 | 1.01 | 1.1
NCI-H1915 | 1.05 | 1.06 | 1.14 | 1.1 | 1.09 | 0.757 | 0.796 | 0.806 | 0.732 | 0.797
NCI-H1623 | 0.907 | 0.723 | 0.937 | 0.84 | 0.713 |  |  |  |  | 
SW 900 | 0.856 | 0.823 | 0.895 | 0.737 | 0.668 |  |  |  |  | 
NCI-H358 | 0.61 | 0.725 | 0.682 | 0.718 | 0.951 |  |  |  |  | 
